Source: PubChem BioAssay AID743426 (The Scripps Research Institute Molecular Screening Center, 2014)
Active and inactive are the calls of the source. No rule for the calls is given here.

Biological target: Sphingosine 1-phosphate receptor 1 (Homo sapiens) (UniProt P21453)
Assay: human S1P1 agonists, dose response, counter-screen for S1PR3 antagonist project, cell-based, fluorescence, late-stage (AID 743426)
Conditions: S1P1-expressing cells, agonist counterscreen

Sequence of Sphingosine 1-phosphate receptor 1 (Homo sapiens) (P21453 whole entry, looked up): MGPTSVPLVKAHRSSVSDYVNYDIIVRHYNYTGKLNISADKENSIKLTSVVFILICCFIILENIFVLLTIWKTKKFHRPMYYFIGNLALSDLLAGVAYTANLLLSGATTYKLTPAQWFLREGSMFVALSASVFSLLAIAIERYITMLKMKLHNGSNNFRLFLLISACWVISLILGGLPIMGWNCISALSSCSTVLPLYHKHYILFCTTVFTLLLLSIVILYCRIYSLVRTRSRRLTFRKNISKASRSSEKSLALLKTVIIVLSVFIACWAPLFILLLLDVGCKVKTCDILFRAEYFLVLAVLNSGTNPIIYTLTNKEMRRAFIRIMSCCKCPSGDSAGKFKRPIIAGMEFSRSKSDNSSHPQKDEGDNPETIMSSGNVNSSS

Row | EC50 | SMILES
1 | > 50 µM (inactive) | O=C(NC(c1ccc(Cl)cc1)c1nc(-c2ccccc2)no1)c1ccc(Cl)c(Br)c1 (configuration not stated)
2 | > 50 µM (inactive) | O=C(NC(c1ccc(Cl)cc1)c1nc(-c2ccccc2)no1)c1cccc(Br)c1 (configuration not stated)
3 | > 50 µM (inactive) | Cc1ccc(C(NC(=O)c2cccc(Cl)c2)c2nc(-c3ccccc3)no2)cc1 (configuration not stated)
4 | > 50 µM (inactive) | Cc1ccc(C(=O)NC(c2ccccc2)c2nc(-c3ccccc3)no2)cc1 (configuration not stated)
5 | inactive | O=C(NC(c1ccccc1)c1nc(-c2ccccc2)no1)c1cccc(Cl)n1 (configuration not stated)
6 | > 50 µM (inactive) | O=C(NC(c1cccc(Cl)c1)c1nc(-c2ccccc2)no1)c1cccc(Cl)c1 (configuration not stated)
7 | > 50 µM (inactive) | O=C(NC(c1ccccc1)c1nc(-c2ccccc2)no1)c1ccc(Cl)cc1 (configuration not stated)
8 | > 50 µM (inactive) | O=C(NC(c1ccc(Br)cc1)c1nc(-c2ccccc2)no1)c1ccc(Cl)c(Cl)c1 (configuration not stated)
9 | inactive | O=C(c1cccc(Cl)c1)N(CCO)C(c1ccc(Cl)c(Cl)c1)c1nc(-c2ccccc2)no1 (configuration not stated)
10 | > 50 µM (inactive) | O=C(NC(c1cccc(Cl)c1)c1nc(-c2ccccc2)no1)c1ccc(Cl)c(Cl)c1 (configuration not stated)
11 | > 50 µM (inactive) | O=C(NC(c1ccc(Cl)cc1)c1nc(-c2ccccc2)no1)c1cccc(Cl)c1 (configuration not stated)
12 | > 50 µM (inactive) | O=C(NC(c1ccc(Cl)cc1)c1nc(-c2cccc(Cl)c2)no1)c1cccc(Cl)c1 (configuration not stated)
13 | > 50 µM (inactive) | N#Cc1ccc(C(=O)NC(c2ccc(Cl)c(Cl)c2)c2nc(-c3ccccc3)no2)cc1 (configuration not stated)
14 | inactive | O=C(NC(c1ccccc1)c1nc(-c2ccccc2)no1)c1cccc(Br)c1 (configuration not stated)
15 | > 50 µM (inactive) | COc1ccc(C(=O)NC(c2ccccc2)c2nc(-c3ccccc3)no2)cc1 (configuration not stated)
16 | > 50 µM (inactive) | O=C(NC(c1ccc(Cl)c(Cl)c1)c1nc(-c2ccccc2)no1)c1ccc(Cl)cc1 (configuration not stated)
17 | > 50 µM (inactive) | O=C(NC(c1ccccc1)c1nc(-c2ccccc2)no1)c1cccc(Cl)c1 (configuration not stated)
18 | > 50 µM (inactive) | O=C(NC(c1ccc(Cl)cc1)c1nc(-c2ccccc2)no1)c1ccc(Cl)c(Cl)c1 (configuration not stated)
19 | > 50 µM (inactive) | O=C(NC(c1ccc(Cl)c(Cl)c1)c1nc(-c2ccccc2)no1)c1cccc(Cl)c1 (configuration not stated)
20 | inactive | O=C(NC(Cc1ccccc1)c1nc(-c2ccccc2)no1)c1cccc(Cl)c1 (configuration not stated)
21 | > 50 µM (inactive) | CCc1ccc(C(NC(=O)c2cccc(Cl)c2)c2nc(-c3ccccc3)no2)cc1 (configuration not stated)
22 | > 50 µM (inactive) | O=C(NC(c1ccc(Cl)cc1)c1nc(-c2ccccn2)no1)c1cccc(Cl)c1 (configuration not stated)
23 | > 50 µM (inactive) | O=C(NC(c1nc(-c2ccccc2)no1)C1CCOCC1)c1ccc(Cl)c(Cl)c1 (configuration not stated)
24 | > 50 µM (inactive) | O=C(NC(c1ccc(Cl)c(Cl)c1)c1nc(-c2ccccc2)no1)c1ccccc1 (configuration not stated)
25 | > 50 µM (inactive) | O=C(NC(c1nc(-c2ccccc2)no1)C1CCCCC1)c1ccc(Cl)c(Cl)c1 (configuration not stated)
26 | > 50 µM (inactive) | O=C(NC(c1ccc(Cl)c(Cl)c1)c1nc(-c2ccccc2)no1)c1ccc(Cl)c(Cl)c1 (configuration not stated)
27 | > 50 µM (inactive) | O=C(NC(c1cccc(Cl)c1)c1nc(-c2ccccc2)no1)c1cc(Cl)cc(Cl)c1 (configuration not stated)
